Source: publication PMC8728392, “Synthesis, Anticancer Assessment, and Molecular Docking of Novel Chalcone-Thienopyrimidine Derivatives in HepG2 and MCF-7 Cell Lines” (Oxidative Medicine and Cellular Longevity, 2021)

Tests used:
[1] = test system: human breast cancer cell line (MCF-7); assay: MTT assay, cytotoxicity; type: cell-based; conditions: MCF-7, 24 hours
Description: (§1) Cancer cell lines were manipulated according to the method described by Sigounas et al.. In this method, the cell lines were grown as adherent monolayers in T75 flasks with Dulbecco's modified Eagle's medium (DMEM) supplemented with 10% Fetal Bovine Serum (FBS), 2 mM L-glutamine, and 1% streptomycin/penicillin. The cells were left to grow in a CO2 incubator at 37°C, 5% CO2, and 95% humidity until their confluence.
(§2) The 3-[4,5-dimethylthiazol-2-yl]-2,5-diphenyltetrazolium bromide (MTT) colorimetric assay was used to examine the sensitivity of cells to tested compounds (as anticancer drugs), as previously described. This assay depends on the production of a purple formazan derivative from the yellow tetrazolium bromide (MTT) by mitochondrial succinate dehydrogenase in viable cells. The percentage of cell survival was calculated as follows: (1) Percentage of survival=O.D.treated cells/O.D.control cells×100.
(§3) For preliminary screening of the cytotoxicity of synthesized compounds 3a-g, cells exposed to DMSO were used as a control. Plotting the relationship between the survival score and the compound concentration and calculating the IC50 (the concentration required to inhibit cell viability by 50%) were performed for each test compound according to Li et al. in comparison with the reference standard anticancer agent, 5-FU.
(§4) The 3-[4,5-dimethylthiazol-2-yl]-2,5-diphenyltetrazolium bromide (MTT) colorimetric assay was used to examine the sensitivity of cells to tested compounds (as anticancer drugs), as previously described by Hussein et al. (2017). This assay depend on the production of a purple formazan derivative from the yellow tetrazolium bromide (MTT) by mitochondrial succinate dehydrogenase in viable cells. Briefly, after harvesting the cells with 0.25% trypsin, the cell lines were suspended in DMEM. Cells were seeded in 96-well microtiter plates at a concentration of 5×10^4 cell/well in a fresh medium and left to attach to the plates for 24 h before treatment with the tested compounds 3a-g. Test compounds were dissolved in dimethyl sulfoxide (DMSO). After 24 hours, cells were incubated with the appropriate concentration ranges of compounds, the wells were diluted to […] with fresh medium and incubation was continued for 24 hours. Three wells were used for each concentration. After 24 hours of treatment, 20 μl of MTT solution (5mg/ml) was added and subsequently the plates were further incubated for 4 hours to allow the viable cells to biotransform the yellow-colored MTT into purple formazan crystals. The optical density (O.D.) of each well was measured spectrophotometrically at […] with an enzyme-linked immunosorbent assay (ELISA) microplate reader (BioTek, EL-800, USA). The percentage of cell survival was calculated as follows: […]

[2] = test system: human liver cancer cell line (HepG2); assay: MTT assay, cytotoxicity; type: cell-based; conditions: HepG2, 24 hours
Description: as §1, §2, §3, §4

[3] = test system: Bax, Bcl-2, caspase-3, and caspase-9 in HepG2; assay: RT-PCR relative expression of apoptosis markers; type: cell-based, human; conditions: IC50, 8-hour incubation, vs control
Excerpt: We determined the effect of IC50 concentration of newly synthesized thienopyrimidine derivatives (3a-e and 3g and 3b and 3g) on the relative expression levels of some markers of apoptosis in HepG2 and MCF-7 cell lines, respectively. These included the antiapoptotic marker Bcl-2 as well as the apoptotic markers Bax, caspase-3, and caspase-9 [33]. BIORAD iScript™ One-Step RT-PCR kit with SYBR® Green was used to assess the relative levels of expression of apoptosis markers. The measurement was carried out according to the technique of reverse transcription polymerase chain reaction (RT-PCR) using the Rotor-Gene RT-PCR system, and the method of the used kit was done based on the manufacturer's instructions. The procedure of this assay included the following:
Based on the manufacturer's instructions, the Qiagen RNeasy Extraction Kit (Qiagen Ltd., UK) was used to isolate mRNA from approximately 1 × 10^7 cells according to the cell line.
Mix all the following reagents to get the total volume (50 μl): 2X SYBR® Green RTPCR reaction mixture (25 μl), forward primer […] (1.5 μl), reverse primer […] (1.5 μl), nuclease-free water (11 μl), RNA template (1 pg-100 ng total RNA) (10 μl), and iScript reverse transcriptase (1 μl) for One-Step RT-PCR.
The thermal cycler (Rotor-Gene) program used was as follows: one cycle for reverse transcription at 50°C for 10 minutes and one cycle for RT inactivation/Hot-start activation at 95°C for 5 minutes and then 45 cycles for qPCR (10 s at 95°C, 30 seconds for annealing at 55°C, and 30 seconds for extension at 72°C), and this is followed by the final extension (one cycle) at 72°C for 10 minutes.

[4] = test system: MCF-7 cell line; assay: Annexin V-FITC/PI apoptotic assay; type: cell-based, human
Excerpt: (§5) Annexin V-fluorescein isothiocyanate (FITC) and counterstaining with propidium iodide (PI) using the Annexin V-FITC/PI apoptosis detection kit (BD Biosciences, San Diego, CA) were employed to distinguish early and late apoptotic cells according to the manufacturer's directions. Annexin V conjugated with fluorescein isothiocyanate was used to quantify the loss of phosphatidylserine asymmetry in cell membranes involved in apoptosis, and propidium iodide can distinguish between early apoptosis, late apoptotic, and necrotic cells. Analyses were achieved by using a FACSCalibur flow cytometer (BD Biosciences, San Jose, CA).
(§6) Cells were gently washed twice with PBS accompanied by tryptic digestion (0.25% trypsin/EDTA) and washed yet again with PBS. All the cells including the floating and adherent ones were harvested, pooled and stained with […] in 1× binding buffer for 15 min at room temperature in the dark. Analyses were achieved by FACS Calibur flow cytometer (BD Biosciences, San Jose, CA).

[5] = test system: HepG2 cells; assay: Annexin V-FITC/PI apoptotic assay; type: cell-based, human
Excerpt: as §5, §6

[6] = test system: HepG2 cell line; assay: Cell cycle analysis (PI, flow cytometry); type: cell-based, human
Description: Cell cycle analysis was performed to decide if the newly synthesized thienopyrimidine derivatives arrested the cell cycle and at what phase of the cell cycle, the HepG2 and MCF-7 cell lines were arrested. The experiments were performed as previously described by Tolba et al.. HepG2 and MCF-7 cell lines were seeded and incubated with the tested compounds in 6-well plates. After incubation overnight, the cells were washed twice with ice-cold phosphate-buffered saline (PBS), detached by EDTA-trypsinization from the plates, harvested by centrifugation, fixed in ice-cold 70% (v/v) ethanol, and washed with phosphate-buffered saline (PBS, pH 7.2 ± 0.2). The cells were resuspended with 0.1 mg/ml RNase, stained with […] propidium iodide (PI), and analyzed by flow cytometry using a FACSCalibur flow cytometer (BD Biosciences, San Jose, CA). CellQuest software (Becton Dickinson) was used to determine the cell cycle distributions after incubation with 5-FU or tested compounds. Exposure of HepG2 and MCF-7 cell lines to these compounds could interfere with the normal cell cycle distribution.

[7] = test system: Bcl-2 16me; design: method as in PMID 19027294; conditions: cited from earlier work
[8] = test system: Bcl-2 26me; design: method as in PMID 19027294; conditions: cited from earlier work
[9] = test system: A549 human lung adenocarcinoma cells; design: method as in PMID 29660690; conditions: cited from earlier work

Compound: CCOC(=O)Cn1c(SCC(=O)Nc2ccc(C(=O)/C=C\c3ccccc3Cl)cc2)nc2sc3c(c2c1=O)CCN(C(=O)OCC)C3 [Compound 3a, Ethyl (Z)-2-((2-((4-(3-(2-Chlorophenyl)acryloyl)phenyl)amino)-2-oxoethyl)thio)-3-(2-ethoxy-2-oxoethyl)-4-oxo-3,5,6,8-tetrahydropyrido[4′,3′:4,5]thieno[2,3-d]pyrimidine-7(4H)-carboxylate]
- survival percentage (mean ± SEM) ([1]; 4.8828125 μg/ml): 150.0 ± 0.171%
- survival percentage (mean ± SEM) ([1]; 9.765625 μg/ml): 132.9 ± 0.132%
- survival percentage (mean ± SEM) ([1]; 19.53125 μg/ml): 124.4 ± 0.079%
- survival percentage (mean ± SEM) ([1]; 39.0625 μg/ml): 129.1 ± 0.038%
- survival percentage (mean ± SEM) ([1]; 78.125 μg/ml): 108.4 ± 0.084%
- survival percentage (mean ± SEM) ([1]; 156.25 μg/ml): 101.8 ± 0.284%
- survival percentage (mean ± SEM) ([1]; 312.5 μg/ml): 101.6 ± 0.022%
- survival percentage (mean ± SEM) ([1]; 625 μg/ml): 64.9 ± 0.008%
- survival percentage (mean ± SEM) ([1]; 1250 μg/ml): 9.8 ± 0.003%
- survival percentage (mean ± SEM) ([1]; 2500 μg/ml): 6.28 ± 0.003%
- survival percentage (mean ± SEM) ([1]; 5000 μg/ml): 6.0 ± 0.001%
- survival percentage (mean ± SEM) ([1]; 10000 μg/ml): 6.0 ± 0.063%
- survival percentage (mean ± SEM) ([2]; 4.8828125 μg/ml): 103.5 ± 0.033%
- survival percentage (mean ± SEM) ([2]; 9.765625 μg/ml): 87.8 ± 0.087%
- survival percentage (mean ± SEM) ([2]; 19.53125 μg/ml): 74.2 ± 0.012%
- survival percentage (mean ± SEM) ([2]; 39.0625 μg/ml): 73.8 ± 0.019%
- survival percentage (mean ± SEM) ([2]; 78.125 μg/ml): 66.9 ± 0.018%
- survival percentage (mean ± SEM) ([2]; 156.25 μg/ml): 40.1 ± 0.021%
- survival percentage (mean ± SEM) ([2]; 312.5 μg/ml): 28.4 ± 0.009%
- survival percentage (mean ± SEM) ([2]; 625 μg/ml): 21.7 ± 0.012%
- survival percentage (mean ± SEM) ([2]; 1250 μg/ml): 20.5 ± 0.004%
- survival percentage (mean ± SEM) ([2]; 2500 μg/ml): 19.5 ± 0.001%
- survival percentage (mean ± SEM) ([2]; 5000 μg/ml): 19.1 ± 0.001%
- survival percentage (mean ± SEM) ([2]; 10000 μg/ml): 18.5 ± 0.001%
- expression levels of Bcl-2 [3]: noticeably decreased
- total, early, and late apoptosis as well as necrosis relative to the control cells [4]: significant increase
- early and late apoptosis [5]: significantly exhibited early and late apoptosis
- cell population in G2/M compared with control cells [6]: substantial increase
- cell population in pre-G1 phases compared with control cells [6]: significant increase
- melting point: 181 to 182 °C

Compound: Cc1c(Cl)c(C(=O)N(c2ccccc2)c2ccccc2)nn1-c1ccccc1C(=O)N1Cc2ccccc2CC1CN (stereo not shown) [DRO]
- IC50 [7]: 0.03 µM
- IC50 [8]: 0.1 µM

Compound: N.N.[Cl][Pt][Cl] [cisplatin]
- IC50 [9]: 15.3 µM

Compound: C=CCn1c(SCC(=O)Nc2ccc(C(=O)/C=C/c3cc(OC)c(OC)c(OC)c3)cc2)nnc1-c1ccc(OC)cc1 [compound I]
- IC50 [9]: 4.4 µM

Compound: Ethyl (Z)-2-(Ethoxymethyl)-4-oxo-3-(2-oxo-2-((4-(3-(2,3,4-trimethoxyphenyl)acryloyl)-phenyl)amino)ethyl)-3,5,6,8-tetrahydropyrido[4′,3′:4,5]thieno[2,3-d]pyrimidine-7(4H)-carboxylate [Compound 3d]
- survival percentage (mean ± SEM) ([1]; 4.8828125 μg/ml): 133.8 ± 0.227%
- survival percentage (mean ± SEM) ([1]; 9.765625 μg/ml): 146.0 ± 0.065%
- survival percentage (mean ± SEM) ([1]; 19.53125 μg/ml): 133.2 ± 0.116%
- survival percentage (mean ± SEM) ([1]; 39.0625 μg/ml): 132.7 ± 0.231%
- survival percentage (mean ± SEM) ([1]; 78.125 μg/ml): 113.1 ± 0.171%
- survival percentage (mean ± SEM) ([1]; 156.25 μg/ml): 103.1 ± 0.202%
- survival percentage (mean ± SEM) ([1]; 312.5 μg/ml): 35.3 ± 0.044%
- survival percentage (mean ± SEM) ([1]; 625 μg/ml): 26.5 ± 0.120%
- survival percentage (mean ± SEM) ([1]; 1250 μg/ml): 8.5 ± 0.006%
- survival percentage (mean ± SEM) ([1]; 2500 μg/ml): 6.2 ± 0.005%
- survival percentage (mean ± SEM) ([1]; 5000 μg/ml): 6.12 ± 0.003%
- survival percentage (mean ± SEM) ([1]; 10000 μg/ml): 5.8 ± 0.001%
- survival percentage (mean ± SEM) ([2]; 4.8828125 μg/ml): 123.0 ± 0.026%
- survival percentage (mean ± SEM) ([2]; 9.765625 μg/ml): 111.0 ± 0.041%
- survival percentage (mean ± SEM) ([2]; 19.53125 μg/ml): 99.2 ± 0.026%
- survival percentage (mean ± SEM) ([2]; 39.0625 μg/ml): 91.2 ± 0.138%
- survival percentage (mean ± SEM) ([2]; 78.125 μg/ml): 31.0 ± 0.017%
- survival percentage (mean ± SEM) ([2]; 156.25 μg/ml): 20.5 ± 0.002%
- survival percentage (mean ± SEM) ([2]; 312.5 μg/ml): 20.5 ± 0.002%
- survival percentage (mean ± SEM) ([2]; 625 μg/ml): 20.0 ± 0.001%
- survival percentage (mean ± SEM) ([2]; 1250 μg/ml): 19.5 ± 0.001%
- survival percentage (mean ± SEM) ([2]; 2500 μg/ml): 19.4 ± 0.004%
- survival percentage (mean ± SEM) ([2]; 5000 μg/ml): 18.5 ± 0.003%
- survival percentage (mean ± SEM) ([2]; 10000 μg/ml): 18.4 ± 0.002%
- expression levels of Bcl-2 [3]: noticeably decreased
- S phase cell population [6]: significant (P < 0.05) increase
- cell population in pre-G1 phases compared with control cells [6]: significant increase
